A short description of this data set: Effect of 5% by weight additives on prothioconazole in N,N-dimethyldecanamide, LED 350 nm, 24 hours. In kind it is physicochemical. The settings on record: 0.4 g prothioconazole, 1.5 g N,N-dimethyldecanamide, 0.1 g stabiliser (5% by weight), 19 mW/cm^2, 24 hours, Comparison without additive 1539 ppm. How it is done:
0.4 g of prothioconazole, 1.5 g of N,N-dimethyldecanamide and 0.1 g of the respective stabiliser were combined in a 20 ml vial. The reaction mixtures were irradiated in a photoreactor with stirring (magnetic stirrer) using LED lamps (wavelength 350 nm, 19 mW/cm^2) for 24 hours. Samples were then taken and the respective content of compound III was determined by HPLC chromatography (column: Agilent Zorbax Eclipse Plus C18, 50×4.6 mm, 1.8 μm, mobile phase: acetonitrile/0.1% by weight of aqueous phosphoric acid, gradient at 2 ml/min, temperature: 45° C., external standard).
With `O[C@H](CS)[C@H](O)CS` (racemic) [DL-Dithiothreitol], the “Compound III (ppm)” value is listed as 749 ppm.
In the case of `O=C(O)C=Cc1ccc(O)cc1` [4-Hydroxycinnamic acid] it was 2754 ppm; in that of `COc1ccc(O)cc1` [4-Methoxyphenol], 1706 ppm.
In the case of `Cc1cc(O)cc2c1O[C@](C)(CCC[C@H](C)CCC[C@H](C)CCCC(C)C)CC2` [(+)-delta-Tocopherol] it was 81 ppm.
The same measure for `Cc1cc(C(C)(C)C)c(O)c(C(C)(C)C)c1` [Butylated hydroxytoluene (BHT), Butylated hydroxytoluene]: 576 ppm; for `O=C(O)/C=C/c1ccc(O)c(O)c1` [Caffeic acid]: 616 ppm; for `C=CCc1ccc(O)c(OC)c1` [Eugenol]: 580 ppm.
Consider `COc1cc(/C=C/C(=O)O)ccc1O` [Ferulic acid], for which the “Compound III (ppm)” value was determined as 2059 ppm.
The same measure for `O=C(O)c1cc(O)c(O)c(O)c1` [Gallic acid]: 3700 ppm.
In the case of `O=C(O)CNC(=O)CCS` [N-(Mercaptopropionyl)glycine] it was 1102 ppm; in that of `CCCCC(CC)COC(=O)C(C#N)=C(c1ccccc1)c1ccccc1` (stereo not drawn) [Octocrylene], 1377 ppm.
The same measure for (+/−)-alpha-Tocopherol: 96 ppm.

The values above are taken from patent publication US20220183279A1, “STABILIZED THIOKETONE FORMULATIONS” (priority 2019, published 2022).
